According to the NIST ThermoML archive (doi:10.1016/j.jct.2004.05.008):

Columns and labels:
[1] = molar heat capacity at constant pressure; settings: 101.33 kPa
[2] = Molar enthalpy of transition or fusion; settings: Crystal

O=C1OC(=O)C2=C1CCCC2 [3,4,5,6-tetrahydrophthalic anhydride]
[1]
Settings | molar heat capacity at constant pressure [J/K/mol]
223.72 K, Crystal | 112.09
225.46 K, Crystal | 113.46
227.04 K, Crystal | 114.91
228.58 K, Crystal | 116.07
230.24 K, Crystal | 117.61
231.74 K, Crystal | 119.05
233.19 K, Crystal | 120.59
234.7 K, Crystal | 122.14
236.22 K, Crystal | 123.06
237.68 K, Crystal | 124.72
239.17 K, Crystal | 126.14
240.66 K, Crystal | 127.28
242.12 K, Crystal | 128.82
243.56 K, Crystal | 131.28
244.92 K, Crystal | 131.95
246.4 K, Crystal | 132.94
247.8 K, Crystal | 133.95
249.31 K, Crystal | 135.13
250.75 K, Crystal | 136.4
252.21 K, Crystal | 137.63
253.66 K, Crystal | 138.64
255.1 K, Crystal | 140.01
256.48 K, Crystal | 141.43
257.94 K, Crystal | 143.17
259.38 K, Crystal | 144.54
260.76 K, Crystal | 146.26
262.22 K, Crystal | 147.86
263.56 K, Crystal | 149.6
264.98 K, Crystal | 151.29
266.44 K, Crystal | 153.66
267.8 K, Crystal | 155.02
269.17 K, Crystal | 156.54
270.62 K, Crystal | 158.31
271.99 K, Crystal | 160.29
273.83 K, Crystal | 162.61
276.06 K, Crystal | 165.27
278.26 K, Crystal | 168.2
280.47 K, Crystal | 170.86
282.77 K, Crystal | 174.18
285 K, Crystal | 177.2
287.13 K, Crystal | 180
289.24 K, Crystal | 183.15
291.4 K, Crystal | 185.52
293.54 K, Crystal | 188.07
295.62 K, Crystal | 190.23
297.76 K, Crystal | 193.49
299.9 K, Crystal | 196.12
302.04 K, Crystal | 198.91
304.16 K, Crystal | 201.6
306.28 K, Crystal | 204.33
308.44 K, Crystal | 208.09
310.59 K, Crystal | 210.93
312.73 K, Crystal | 214.84
314.77 K, Crystal | 218
316.97 K, Crystal | 220.39
319 K, Crystal | 224.36
321.06 K, Crystal | 227.34
323.12 K, Crystal | 231.9
325.11 K, Crystal | 237.01
327.12 K, Crystal | 241.19
329.09 K, Crystal | 246.67
330.99 K, Crystal | 261.9
346.46 K, Liquid | 275.09
348.18 K, Liquid | 275.94
350 K, Liquid | 277.07
351.67 K, Liquid | 278.18
353.41 K, Liquid | 279.59
355.08 K, Liquid | 280.65
356.67 K, Liquid | 281.82
360.3 K, Liquid | 284.63

Settings | Molar enthalpy of transition or fusion [kJ/mol]
[2] | 11.88
